Data published in publication PMC12311725, “Identification of Ginsentide-like Peptides from Cacao Beans with Oxidative Stress Protection” (ACS Omega, 2025).
Where a SMILES comes first, the peptide text is derived from it. Bridges are numbered along the chain shown (N, C = ends). Where no end group is shown, it is not given here. The star is where a group is joined. 5FAM = O=C1OC2(c3ccc(O)cc3Oc3cc(O)ccc32)c2ccc(C(=O)*)cc21; Cam = NC(=O)C*

Assays:
[1] = tested on: HaCaT keratinocytes; assay: Live-cell confocal microscopy of internalization; assay type: cell-based, human; conditions: 1 μM, 37 °C, 1 h, Z-stack confocal fluorescence
Procedure: HaCaT (human keratinocyte) cells were cultured in Dulbecco’s modification of Eagle’s medium (DMEM) supplemented with 10% fetal bovine serum and 100 U/mL penicillin and streptomycin. They were grown in a 5% CO2 humidified incubator at 37 °C
To examine the internalization of FAM-tC1 in living cells, the cells were seeded on an 8-well chamber slide (Ibidi). Prior to incubation with FAM-tC1, the cells were stained with […]. FAM-tC1 was incubated on cells in phenol red-free and serum-free medium for 1 h at 37 °C. The slides were washed gently with PBS three times, and the medium was replaced prior to imaging. The slides were observed by using a Zeiss LSM 980 confocal microscope.
8 Confocal image of fluorescent labeled FAM-tC1 in HaCaT keratinocytes. (A) 1 μM FAM-tC1 was incubated with HaCaT keratinocytes at 37 °C for 1 h, and Z-stack confocal analysis was performed. Green: FAM-tC1; Blue: Nucleus. The red outline indicates the region of interest (ROI) which is presented as a 3D-rendered Z-stack image on the right. (B) Fluorescence intensity line profiles measured across the ROI at three representative z-depths (bottom, middle, and top slice).

[2] = tested on: trypsin; assay: Peptide stability assay with trypsin (RP-HPLC); assay type: in vitro ADME; conditions: trypsin in 0.1 M ammonium bicarbonate buffer pH 8, 37 °C, 6 h; peptide 0.1 M [sic]; RP-HPLC peak area as % of initial
Procedure: (§1) Stability studies were conducted using purified cocotide tC1 (0.1 M) and S-alkylated tC1 (iodoacetamido) under specific buffer conditions. Pepsin stability was assessed by incubating the samples in a mixture of pepsin at a ratio of 50:1 (w/v) in 0.2 M HCl at 37 °C. For trypsin stability, the samples were treated with trypsin in 0.1 M ammonium bicarbonate buffer (pH 8) at 37 °C. Analysis of stability assays involved collecting samples at various time points, which were then analyzed by reversed-phase high-performance liquid chromatography (RP-HPLC) using a linear gradient of mobile phase A (0.05% trifluoroacetic acid in water) and mobile phase B (0.05% trifluoroacetic acid in acetonitrile) on an Aeris Peptide XB-C18 column (Phenomenex). The stability results were expressed as a percentage of the initial concentration and determined by the peak area of the HPLC profile.
(§2) 7 Proteolytic stability assays of cocotide tC1. Cocotide tC1 was incubated with either pepsin or trypsin at 37 °C for up to 6 h. S-alkylated tC1 was used as the control. At different time points, samples of cocotide tC1 and the control were quantified using reversed-phase high pressure liquid chromatography (RP-HPLC). The relative peak areas of the RP-HPLC profiles were used to quantify the percentage of peptides remaining after incubation with pepsin or trypsin.

[3] = tested on: pepsin; assay: Peptide stability assay with pepsin (RP-HPLC); assay type: in vitro ADME; conditions: pepsin 50:1 (w/v) in 0.2 M HCl, 37 °C, 6 h; peptide 0.1 M [sic]; RP-HPLC peak area as % of initial
Procedure: as §1, §2

[4] = Ferric Reducing Antioxidant Power (FRAP) assay; conditions: OxiSelect FRAP Assay Kit
Procedure: OxiSelect Ferric Reducing Antioxidant Power (FRAP) Assay Kit (Cell Biolabs, USA) was used to measure the antioxidant potential of cocotide tC1. The assay was performed according to the manufacturer’s instructions .

[5] = Post-translational modification analysis of methionine oxidation (tims-TOF MS/MS); assay type: physicochemical; conditions: native peptide from aqueous extract
Procedure: The primary sequences of cocotides from Theobroma cacao aqueous extracts were determined by LC-MS/MS sequencing as described previously. The C18-SPE fractionated Theobroma cacao aqueous extracts were redissolved in 20 mM DTT at 37 °C for 1 h followed by S-alkylation with 200 mM iodoacetamide at 37 °C for 1 h. The mixture was desalted with a C18 Zip-tip and subjected to analysis on a trapped ion mobility spectrometer-time-of-flight tandem mass spectrometer (tims-TOF MS/MS). Data analysis was performed using PEAKS Studio (version 11, Bioinformatics Solutions, Waterloo, ON, Canada) with a precursor ion tolerance of 10 ppm and a fragment ion tolerance of 0.05 Da. Carbamidomethylation at Cys was set as a fixed modification. Deamidation of […], oxidation of Met, and acetylation at Lys and N-term were set as variable modification. Peptide sequencing was performed using PEAKS DB protein identification, which integrates database search of an in-house ginsentide-like peptide library derived from Theobroma cacao transcriptome with de novo sequencing.

CC[C@H](C)[C@@H]1NC(=O)CNC(=O)[C@H](CCSC)NC(=O)[C@@H]2CCCN2C(=O)[C@H](Cc2ccc(O)cc2)NC(=O)[C@H](CC(C)C)NC(=O)[C@@H]2CSSC[C@@H]3NC(=O)[C@H](Cc4ccccc4)NC(=O)CNC(=O)CNC(=O)[C@H](C)NC(=O)[C@H](CO)NC(=O)[C@H](CC(C)C)NC(=O)[C@@H](NC(=O)[C@@H](N)CCCCNC(=O)c4ccc5c(c4)C(=O)OC54c5ccc(O)cc5Oc5cc(O)ccc54)CSSC[C@@H]4NC(=O)[C@H](CSSC[C@H](NC1=O)C(=O)N[C@@H](Cc1ccc(O)cc1)C(=O)NCC(=O)N[C@@H](CO)C(=O)NCC(=O)N[C@H](C(=O)O)CSSC[C@H](NC(=O)[C@H](CC(N)=O)NC(=O)CNC4=O)C(=O)NCC(=O)N2)NC(=O)[C@H](CC(=O)O)NC(=O)[C@H](CCSC)NC(=O)[C@@H]1CCCN1C(=O)[C@H](CC(N)=O)NC(=O)[C@H](Cc1ccccc1)NC(=O)[C@H](CCSC)NC3=O [FAM-tC1] (H-K(5FAM)CLSAGGFCMFNPMDCCGNCGCLYPMGICYGSGC-OH; disulfide 2-17, 9-22, 16-29, 20-34)
fluorescent signal in the nucleus [1]: no fluorescent signals were detected in the nucleus | cell penetration (internalization) ([1]; serum-free medium): readily penetrates the cells

CC[C@H](C)[C@H](NC(=O)CNC(=O)[C@H](CCSC)NC(=O)[C@@H]1CCCN1C(=O)[C@H](Cc1ccc(O)cc1)NC(=O)[C@H](CC(C)C)NC(=O)[C@H](CSCC(N)=O)NC(=O)CNC(=O)[C@H](CSCC(N)=O)NC(=O)[C@H](CC(N)=O)NC(=O)CNC(=O)[C@H](CSCC(N)=O)NC(=O)[C@H](CSCC(N)=O)NC(=O)[C@H](CC(=O)O)NC(=O)[C@H](CCSC)NC(=O)[C@@H]1CCCN1C(=O)[C@H](CC(N)=O)NC(=O)[C@H](Cc1ccccc1)NC(=O)[C@H](CCSC)NC(=O)[C@H](CSCC(N)=O)NC(=O)[C@H](Cc1ccccc1)NC(=O)CNC(=O)CNC(=O)[C@H](C)NC(=O)[C@H](CO)NC(=O)[C@H](CC(C)C)NC(=O)[C@@H](N)CSCC(N)=O)C(=O)N[C@@H](CSCC(N)=O)C(=O)N[C@@H](Cc1ccc(O)cc1)C(=O)NCC(=O)N[C@@H](CO)C(=O)NCC(=O)N[C@@H](CSCC(N)=O)C(=O)O [S-alkylated cocotide tC1, reference compound] (H-C(Cam)LSAGGFC(Cam)MFNPMDC(Cam)C(Cam)GNC(Cam)GC(Cam)LYPMGIC(Cam)YGSGC(Cam)-OH)
structural integrity retained (percentage of peptide remaining) after incubation with trypsin [2]: degraded rapidly | structural integrity retained (percentage of peptide remaining) after incubation with pepsin [3]: degraded rapidly

O=C1O[C@H]([C@@H](O)CO)C(O)=C1O [ascorbic acid, reference compound]
FRAP value [4]: 0.36 Fe^2+ μM/μM

CLSAGGFCMFIPMDCCGNCGCLFPMGFCYGSGC (disulfide (positions not given here)) [cocotide tC2, ginsentide-like cysteine-rich peptide found in T. cacao aqueous extract]
methionine oxidation pattern [5]: Met9 was more prone to oxidation than Met13

CLSAGGFCVFNPMDCCGNCGCLYPMGICYGSGC (disulfide (positions not given here)) [cocotide tC7, ginsentide-like cysteine-rich peptide found in T. cacao aqueous extract]
methionine oxidation pattern [5]: minimal oxidation
